Laboratory results as given in ChEMBL document CHEMBL3734713, “4-Thiazolidinone derivatives as potent antimicrobial agents: microwave-assisted synthesis, biological evaluation and docking studies” (2015).
In brackets after ≈: the same amount, converted by molar mass.

Legend:
Staphylococcus aureus = assay: Antibacterial activity against Staphylococcus aureus ATCC 6538 assessed as growth inhibition after 24 hrs at 37 degC by iodonitrotetrazolium chloride staining based microdilution broth assay; type: functional; details: ATCC 6538, 24 h
Talaromyces funiculosus = assay: Antifungal activity against Penicillium funiculosum ATCC 36839 assessed as growth inhibition after 72 hrs at 28 degC by serial dilution method; type: functional; details: for MIC: Talaromyces funiculosus, ATCC 36839, 72 h
Aspergillus ochraceus = assay: Antifungal activity against Aspergillus ochraceus ATCC 12066 assessed as growth inhibition after 72 hrs at 28 degC by serial dilution method; type: functional; details: for MIC: Aspergillus ochraceus, ATCC 12066, 72 h
Escherichia coli = assay: Antibacterial activity against Escherichia coli ATCC 35210 assessed as growth inhibition after 24 hrs at 37 degC by iodonitrotetrazolium chloride staining based microdilution broth assay; type: functional; details: ATCC 35210, 24 h
Listeria monocytogenes = assay: Antibacterial activity against Listeria monocytogenes NCTC 7973 assessed as growth inhibition after 24 hrs at 37 degC by iodonitrotetrazolium chloride staining based microdilution broth assay; type: functional; details: NCTC 7973, 24 h
Aspergillus niger = assay: Antifungal activity against Aspergillus niger ATCC 6275 assessed as growth inhibition after 72 hrs at 28 degC by serial dilution method; type: functional; details: for MIC: Aspergillus niger, ATCC 6275, 72 h
Aspergillus versicolor = assay: Antifungal activity against Aspergillus versicolor ATCC 11730 assessed as growth inhibition after 72 hrs at 28 degC by serial dilution method; type: functional; details: for MIC: Aspergillus versicolor, ATCC 11730, 72 h
Bacillus cereus = assay: Antibacterial activity against clinical isolates of Bacillus cereus assessed as growth inhibition after 24 hrs at 37 degC by iodonitrotetrazolium chloride staining based microdilution broth assay; type: functional
Micrococcus flavus = assay: Antibacterial activity against Micrococcus flavus ATCC 10240 assessed as growth inhibition after 24 hrs at 37 degC by iodonitrotetrazolium chloride staining based microdilution broth assay; type: functional; details: ATCC 10240, 24 h
Trichoderma viride = assay: Antifungal activity against Trichoderma viride IAM 5061 assessed as growth inhibition after 72 hrs at 28 degC by serial dilution method; type: functional; details: for MIC: Trichoderma viride, IAM 5061, 72 h
Penicillium ochrochloron = assay: Antifungal activity against Penicillium ochrochloron ATCC 9112 assessed as growth inhibition after 72 hrs at 28 degC by serial dilution method; type: functional; details: for MIC: Penicillium ochrochloron, ATCC 9112, 72 h
Candida albicans = assay: Antifungal activity against Candida albicans ATCC 10231 assessed as growth inhibition after 72 hrs at 28 degC by serial dilution method; type: functional; details: for MIC: Candida albicans, ATCC 10231, 72 h
Enterobacter cloacae = assay: Antibacterial activity against human isolate of Enterobacter cloacae assessed as growth inhibition after 24 hrs at 37 degC by iodonitrotetrazolium chloride staining based microdilution broth assay; type: functional
Salmonella typhimurium = assay: Antibacterial activity against Salmonella typhimurium ATCC 13311 assessed as growth inhibition after 24 hrs at 37 degC by iodonitrotetrazolium chloride staining based microdilution broth assay; type: functional, Salmonella enterica subsp. enterica serovar Typhimurium; details: Salmonella enterica, ATCC 13311, 24 h
[1] = target: Human immunodeficiency virus type 1 reverse transcriptase (Human immunodeficiency virus 1) (UniProt Q72547); assay: Inhibition of HIV1 reverse transcriptase assessed as residual enzyme activity by measuring reduction in [3H]dTTP incorporation into poly(rA)-oligo(dT) at 4 uM incubated for 15 mins by scintillation counting method relative to control
Pseudomonas aeruginosa = assay: Antibacterial activity against Pseudomonas aeruginosa ATCC 27853 assessed as growth inhibition after 24 hrs at 37 degC by iodonitrotetrazolium chloride staining based microdilution broth assay; type: functional; details: ATCC 27853, 24 h
Aspergillus fumigatus = assay: Antifungal activity against Aspergillus fumigatus ATCC 1022 assessed as growth inhibition after 72 hrs at 28 degC by serial dilution method; type: functional; details: for MIC: Aspergillus fumigatus, ATCC 1022, 72 h

| Structure (SMILES) | MBC (Staphylococcus aureus) | MIC (Staphylococcus aureus) | MFC99.5 (Talaromyces funiculosus) | MIC (Talaromyces funiculosus) | MFC99.5 (Aspergillus ochraceus) | MIC (Aspergillus ochraceus) | MBC (Escherichia coli) | MIC (Escherichia coli) | MBC (Listeria monocytogenes) | MIC (Listeria monocytogenes) | MFC99.5 (Aspergillus niger) | MIC (Aspergillus niger) | MFC99.5 (Aspergillus versicolor) | MIC (Aspergillus versicolor) | MBC (Bacillus cereus) | MIC (Bacillus cereus) | MBC (Micrococcus flavus) | MIC (Micrococcus flavus) | MFC99.5 (Trichoderma viride) | MIC (Trichoderma viride) | also measured |
| --- | --- | --- | --- | --- | --- | --- | --- | --- | --- | --- | --- | --- | --- | --- | --- | --- | --- | --- | --- | --- | --- |
| O=C1CSC(c2cccc(Cl)c2)N1c1nc(C23CC4CC(CC(C4)C2)C3)cs1 (centres undefined) | 62.5 µM (≈ 26.9 µg/mL) | 30.6 µM (≈ 13.2 µg/mL) | 0.58 ×10⁻² umol/ml | 2.9 µM (≈ 1.25 µg/mL) | 0.07 ×10⁻² umol/ml | 0.45 µM (≈ 0.194 µg/mL) | 125 µM (≈ 53.9 µg/mL) | 62.5 µM (≈ 26.9 µg/mL) | 125 µM (≈ 53.9 µg/mL) | 62.5 µM (≈ 26.9 µg/mL) | 0.07 ×10⁻² umol/ml | 0.3 µM (≈ 0.129 µg/mL) | 0.07 ×10⁻² umol/ml | 0.3 µM (≈ 0.129 µg/mL) | 62.5 µM (≈ 26.9 µg/mL) | 16.2 µM (≈ 7 µg/mL) | 125 µM (≈ 53.9 µg/mL) | 62.5 µM (≈ 26.9 µg/mL) | 0.045 ×10⁻² umol/ml | 0.3 µM (≈ 0.129 µg/mL) | MFC99.5 (Penicillium ochrochloron): 0.58 ×10⁻² umol/ml; MIC (Penicillium ochrochloron): 2.9 µM (≈ 1.25 µg/mL); MFC99.5 (Candida albicans): 1.16 ×10⁻² umol/ml; MIC (Candida albicans): 5.8 µM (≈ 2.5 µg/mL); MBC (Enterobacter cloacae): 125 µM (≈ 53.9 µg/mL); MIC (Enterobacter cloacae): 62.5 µM (≈ 26.9 µg/mL); MBC (Salmonella typhimurium): 62.5 µM (≈ 26.9 µg/mL); MIC (Salmonella typhimurium): 30.6 µM (≈ 13.2 µg/mL); Activity [1]: 99.3%; MBC (Pseudomonas aeruginosa): 125 µM (≈ 53.9 µg/mL); MIC (Pseudomonas aeruginosa): 62.5 µM (≈ 26.9 µg/mL); MFC99.5 (Aspergillus fumigatus): 0.58 ×10⁻² umol/ml; MIC (Aspergillus fumigatus): 2.9 µM (≈ 1.25 µg/mL) |
| O=C1CSC(c2cccc(F)c2)N1c1nc(C23CC4CC(CC(C4)C2)C3)cs1 (centres undefined) | 500 µM (≈ 207 µg/mL) | 300 µM (≈ 124 µg/mL) | 0.14 ×10⁻² umol/ml | 0.8 µM (≈ 0.332 µg/mL) | 0.14 ×10⁻² umol/ml | 0.4 µM (≈ 0.166 µg/mL) | 125 µM (≈ 51.8 µg/mL) | 15.3 µM (≈ 6.34 µg/mL) | 125 µM (≈ 51.8 µg/mL) | 15.3 µM (≈ 6.34 µg/mL) | 0.14 ×10⁻² umol/ml | 0.8 µM (≈ 0.332 µg/mL) | 0.14 ×10⁻² umol/ml | 0.4 µM (≈ 0.166 µg/mL) | 500 µM (≈ 207 µg/mL) | 300 µM (≈ 124 µg/mL) | 61.2 µM (≈ 25.4 µg/mL) | 30.6 µM (≈ 12.7 µg/mL) | 0.14 ×10⁻² umol/ml | 1.2 µM (≈ 0.497 µg/mL) | MFC99.5 (Penicillium ochrochloron): 0.14 ×10⁻² umol/ml; MIC (Penicillium ochrochloron): 0.4 µM (≈ 0.166 µg/mL); MFC99.5 (Candida albicans): 0.14 ×10⁻² umol/ml; MIC (Candida albicans): 0.8 µM (≈ 0.332 µg/mL); MBC (Enterobacter cloacae): 125 µM (≈ 51.8 µg/mL); MIC (Enterobacter cloacae): 30.6 µM (≈ 12.7 µg/mL); MBC (Salmonella typhimurium): 15.3 µM (≈ 6.34 µg/mL); MIC (Salmonella typhimurium): 9 µM (≈ 3.73 µg/mL); Activity [1]: 100%; MBC (Pseudomonas aeruginosa): 15.3 µM (≈ 6.34 µg/mL); MIC (Pseudomonas aeruginosa): 9 µM (≈ 3.73 µg/mL); MFC99.5 (Aspergillus fumigatus): 0.14 ×10⁻² umol/ml; MIC (Aspergillus fumigatus): 0.8 µM (≈ 0.332 µg/mL) |
| O=C1CSC(c2ccccc2Cl)N1c1nc(C23CC4CC(CC(C4)C2)C3)cs1 (centres undefined) | 125 µM (≈ 53.9 µg/mL) | 62.5 µM (≈ 26.9 µg/mL) | 1.16 ×10⁻² umol/ml | 5.8 µM (≈ 2.5 µg/mL) | 0.07 ×10⁻² umol/ml | 0.3 µM (≈ 0.129 µg/mL) | 125 µM (≈ 53.9 µg/mL) | 62.5 µM (≈ 26.9 µg/mL) | 125 µM (≈ 53.9 µg/mL) | 16.2 µM (≈ 7 µg/mL) | 1.16 ×10⁻² umol/ml | 9 µM (≈ 3.88 µg/mL) | 1.16 ×10⁻² umol/ml | 5.8 µM (≈ 2.5 µg/mL) | 125 µM (≈ 53.9 µg/mL) | 30.6 µM (≈ 13.2 µg/mL) | 125 µM (≈ 53.9 µg/mL) | 45 µM (≈ 19.4 µg/mL) | 1.16 ×10⁻² umol/ml | 5.8 µM (≈ 2.5 µg/mL) | MFC99.5 (Penicillium ochrochloron): 1.16 ×10⁻² umol/ml; MIC (Penicillium ochrochloron): 5.8 µM (≈ 2.5 µg/mL); MFC99.5 (Candida albicans): 2.32 ×10⁻² umol/ml; MIC (Candida albicans): 11.6 µM (≈ 5 µg/mL); MBC (Enterobacter cloacae): 125 µM (≈ 53.9 µg/mL); MIC (Enterobacter cloacae): 30.6 µM (≈ 13.2 µg/mL); MBC (Salmonella typhimurium): 125 µM (≈ 53.9 µg/mL); MIC (Salmonella typhimurium): 62.5 µM (≈ 26.9 µg/mL); Activity [1]: 99.1%; MBC (Pseudomonas aeruginosa): 125 µM (≈ 53.9 µg/mL); MIC (Pseudomonas aeruginosa): 62.5 µM (≈ 26.9 µg/mL); MFC99.5 (Aspergillus fumigatus): 1.16 ×10⁻² umol/ml; MIC (Aspergillus fumigatus): 5.8 µM (≈ 2.5 µg/mL) |
